Source: patent US10934285B2, “Compounds and compositions for inhibiting the activity of SHP2” (Novartis AG, priority 2016, dated 2021)
pIC50: −log10 of the molar value.

Target: SHP2 (Homo sapiens (Human), UniProt Q06124)
Assay: SHP2 Allosteric Inhibition Assay
Assay type: biochemical
Settings: 0.5 nM SHP2 activated with 0.5 μM peptide IRS1_pY1172(dPEG8)pY1222; surrogate substrate DiFMUP; prompt fluorescence
Source text: SHP2 Allosteric Inhibition Assay
SHP2 is allosterically activated through binding of bis-tyrosyl-phorphorylated peptides to its Src Homology 2 (SH2) domains. The latter activation step leads to the release of the auto-inhibitory interface of SHP2, which in turn renders the SHP2 protein tyrosine phosphatase (PTP) active and available for substrate recognition and reaction catalysis. The catalytic activity of SHP2 was monitored using the surrogate substrate DiFMUP in a prompt fluorescence assay format.
After 30-60 minutes incubation at 25° C., the surrogate substrate DiFMUP (Invitrogen, cat #D6567) was added to the reaction and incubated at 25° C. for 30 minutes. […] The inhibitor dose response curves were analyzed using normalized IC50 regression curve fitting with control based normalization.

SMILES	pIC50
CC1(N)CCN(c2cnc(Sc3cccc(NC(=O)c4c(O)nc5ccccn5c4=O)c3Cl)c(N)n2)CC1 [Example 1, N-(3-((3-Amino-5-(4-amino-4-methylpiperidin-1-yl)pyrazin-2-yl)thio)-2-chlorophenyl)-2-hydroxy-4-oxo-4H-pyrido[1,2-a]pyrimidine-3-carboxamide]	8.22
CC1(CN)CCN(c2nnc(Sc3cccc(NC(=O)c4c(O)nc5sccn5c4=O)c3Cl)c(N)n2)CC1 [Example 32, N-(3-((5-amino-3-(4-(aminomethyl)-4-methylpiperidin-1-yl)-1,2,4-triazin-6-yl)thio)-2-chlorophenyl)-7-hydroxy-5-oxo-5H-thiazolo[3,2-a]pyrimidine-6-carboxamide]	8.10
Nc1nc(N2CCC3(CCC[C@H]3N)CC2)cnc1Sc1cccc(NC(=O)c2c(O)nc3n(c2=O)CCCC3)c1Cl [Example 24, (R)-N-(3-((3-amino-5-(1-amino-8-azaspiro[4.5]decan-8-yl)pyrazin-2-yl)thio)-2-chlorophenyl)-2-hydroxy-4-oxo-6,7,8,9-tetrahydro-4H-pyrido[1,2-a]pyrimidine-3-carboxamide]	9.00
Nc1nc(N2CCC3(CCC[C@H]3N)CC2)nnc1Sc1cccc(NC(=O)c2c(O)nc3ccccn3c2=O)c1Cl [Example 42, (R)-N-(3-((5-amino-3-(1-amino-8-azaspiro[4.5]decan-8-yl)-1,2,4-triazin-6-yl)thio)-2-chlorophenyl)-2-hydroxy-4-oxo-4H-pyrido[1,2-a]pyrimidine-3-carboxamide]	7.80
Nc1nc(N2CCC3(CC2)COC[C@H]3N)cnc1Sc1cccc(NC(=O)c2c(O)nc3n(c2=O)CCCC3)c1Cl [Example 26, (S)—N-(3-((3-Amino-5-(4-amino-2-oxa-8-azaspiro[4.5]decan-8-yl)pyrazin-2-yl)thio)-2-chlorophenyl)-2-hydroxy-4-oxo-6,7,8,9-tetrahydro-4H-pyrido[1,2-a]pyrimidine-3-carboxamide]	7.74
Nc1nc(N2CCC3(CC2)CC(F)(F)C[C@H]3N)cnc1Sc1cccc(NC(=O)c2c(O)nc3n(c2=O)CCCC3)c1Cl [Example 28, (R)-N-(3-((3-amino-5-(1-amino-3,3-difluoro-8-azaspiro[4.5]decan-8-yl)pyrazin-2-yl)thio)-2-chlorophenyl)-2-hydroxy-4-oxo-6,7,8,9-tetrahydro-4H-pyrido[1,2-a]pyrimidine-3-carboxamide]	7.38
N#CC1(CN)CCN(c2cnc(Sc3cccc(NC(=O)c4c(O)nc5n(c4=O)CCCC5)c3Cl)c(N)n2)CC1 [Example 12, N-(3-((3-amino-5-(4-(aminomethyl)-4-cyanopiperidin-1-yl)pyrazin-2-yl)thio)-2-chlorophenyl)-2-hydroxy-4-oxo-6,7,8,9-tetrahydro-4H-pyrido[1,2-a]pyrimidine-3-carboxamide]	6.59
CN1C(=O)C(C(=O)Nc2cccc(Sc3ccc4nc(N5CCCCC5)[nH]c4n3)c2Cl)=C(O)C1Cc1ccccc1 (stereo not shown) [Example 61, 5-benzyl-N-(2-chloro-3-((2-(piperidin-1-yl)-3H-imidazo[4,5-b]pyridin-5-yl)thio)phenyl)-4-hydroxy-1-methyl-2-oxo-2,5-dihydro-1H-pyrrole-3-carboxamide]	7.66
Nc1nc(N2CCC3(CCC[C@H]3N)CC2)cnc1Sc1cccc(NC(=O)c2c(O)nc3ccccn3c2=O)c1Cl [Example 23, (R)-N-(3-((3-amino-5-(1-amino-8-azaspiro[4.5]decan-8-yl)pyrazin-2-yl)thio)-2-chlorophenyl)-2-hydroxy-4-oxo-4H-pyrido[1,2-a]pyrimidine-3-carboxamide]	8.30
CC1(N)CCN(c2nc3ccc(Sc4cccc(NC(=O)C5=C(O)CN(c6ccccc6)C5=O)c4)nc3[nH]2)CC1 [Example 46, N-(3-((2-(4-Amino-4-methylpiperidin-1-yl)-3H-imidazo[4,5-b]pyridin-5-yl)thio)phenyl)-4-hydroxy-2-oxo-1-phenyl-2,5-dihydro-1H-pyrrole-3-carboxamide]	7.15
CC1(CN)CCN(c2nnc(Sc3cccc(NC(=O)c4ccc5ccccn5c4=O)c3Cl)c(N)n2)CC1 [Example 40, N-(3-((5-amino-3-(4-(aminomethyl)-4-methylpiperidin-1-yl)-1,2,4-triazin-6-yl)thio)-2-chlorophenyl)-4-oxo-4H-quinolizine-3-carboxamide]	6.76
NCC1CCN(c2cnc(Sc3cccc(NC(=O)c4c(O)nc5ccccn5c4=O)c3Cl)c(N)n2)C1 (stereo not shown) [Example 17]	7.89

Continued, values first:

pIC50	SMILES
7.96	O=C(Nc1cccc(Sc2ccc3nc(N4CCCCC4)[nH]c3n2)c1Cl)C1=C(O)[C@H](Cc2ccccc2)NC1=O [Example 60, (S)-5-benzyl-N-(2-chloro-3-((2-(piperidin-1-yl)-3H-imidazo[4,5-b]pyridin-5-yl)thio)phenyl)-4-hydroxy-2-oxo-2,5-dihydro-1H-pyrrole-3-carboxamide]
7.77	CC1(N)CCN(c2cnc(Sc3cccc(NC(=O)C4=C(O)CN(c5ccccc5)C4=O)c3)c(N)n2)CC1 [Example 66, N-(3-((3-Amino-5-(4-amino-4-methylpiperidin-1-yl)pyrazin-2-yl)thio)phenyl)-4-hydroxy-2-oxo-1-phenyl-2,5-dihydro-1H-pyrrole-3-carboxamide]
7.46	CC1(CN)CCN(c2nnc(Sc3cccc(NC(=O)c4c(O)nc5[nH]ccn5c4=O)c3Cl)c(N)n2)CC1 [Example 35, N-(3-((5-amino-3-(4-(aminomethyl)-4-methylpiperidin-1-yl)-1,2,4-triazin-6-yl)thio)-2-chlorophenyl)-7-hydroxy-5-oxo-1,5-dihydroimidazo[1,2-a]pyrimidine-6-carboxamide]
7.96	C[C@@H]1CN(c2cnc(Sc3cccc(NC(=O)C4=C(O)CN(c5ccccc5)C4=O)c3Cl)c(N)n2)C[C@H](C)N1 [Example 57, N-(3-((3-amino-5-(cis-3,5-dimethylpiperazin-1-yl)pyrazin-2-yl)thio)-2-chlorophenyl)-4-hydroxy-2-oxo-1-phenyl-2,5-dihydro-1H-pyrrole-3-carboxamide]
7.92	CC1(CN)CCN(c2nnc(Sc3cccc(NC(=O)c4c(O)nc5n(c4=O)CCCC5)c3Cl)c(N)n2)CC1 [Example 36, N-(3-((5-amino-3-(4-(aminomethyl)-4-methylpiperidin-1-yl)-1,2,4-triazin-6-yl)thio)-2-chlorophenyl)-2-hydroxy-4-oxo-6,7,8,9-tetrahydro-4H-pyrido[1,2-a]pyrimidine-3-carboxamide]
7.96	CC1(N)CCN(c2nnc(Sc3cccc(NC(=O)c4c(O)nc5ccccn5c4=O)c3Cl)c(N)n2)CC1 [Example 41, N-(3-((5-amino-3-(4-amino-4-methylpiperidin-1-yl)-1,2,4-triazin-6-yl)thio)-2-chlorophenyl)-2-hydroxy-4-oxo-4H-pyrido[1,2-a]pyrimidine-3-carboxamide]
8.00	CC1(CN)CCN(c2nnc(Sc3cccc(NC(=O)c4c(O)nc5ccccn5c4=O)c3Cl)c(N)n2)CC1 [Example 33, N-(3-((5-amino-3-(4-(aminomethyl)-4-methylpiperidin-1-yl)-1,2,4-triazin-6-yl)thio)-2-chlorophenyl)-2-hydroxy-4-oxo-4H-pyrido[1,2-a]pyrimidine-3-carboxamide]
